Source: patent US8586552B2, “4,6-substituted 2,5-dideoxystreptamine aminoglycoside antibiotics” (SelectX Pharmaceuticals, Inc., priority 2012, dated 2013)
Converted amounts (≈) assume the structure as drawn.

Tests used:
Assay type in all cases: cell-based
[1] = system: Klebsiella pneumoniae (Kpn, KPWT, ATCC #700603); assay: MIC against Klebsiella pneumoniae reference strain KPWT; conditions: Klebsiella pneumoniae KPWT, Table 2; for MIC: ATCC700603
Excerpt: For evaluation of efficacy, we assembled panels of representative gram-negative pathogens, including Pseudomonas aeruginosa (Pae, PAWT, ATCC #27853), Klebsiella pneumoniae (Kpn, KPWT, ATCC #700603), Acinetobacter baumannii (Aba, ABWT, ATCC #BAA-747) and Escherichia coli (Eco, ECWT, ATCC #25922). […] Two strains (PAWT and ECWT) are reference strains cited within the Clinical and Laboratory Standards Institute (CLSI) Standards for susceptibility testing by Minimum Inhibitory Concentration (MIC) (SXPS2) and are well suited for quality control. ABWT and ECWT are widely susceptible to aminoglycoside antibiotics, whereas PAWT and KPWT harbor a single aminoglycoside-modifying enzyme (AGME) that targets 4,6-substituted-2-deoxystreptamine AGs. […]

[2] = system: Klebsiella pneumoniae screening panel KPWT, KR1, KR2, KR3; assay: Klebsiella pneumoniae screening panel (KPWT, KR1, KR2, KR3), reference AGs
Excerpt: Klebsiella pneumoniae (Kpn) and Escherichia coli (Eco) are gram-negative (like Pae), enteric pathogens with increasing clinical relevance. Many clinical isolates of Kpn and Eco harbor extended-spectrum beta-lactamases and are no longer sensitive to most beta-lactam antibiotics. We acquired clinical isolates of Klebsiella pneumoniae and Escherichia coli (Micromyx LLC, Kalamazoo, Mich.) and used this panel to test compounds for anti-enteric activity.

[3] = system: Pseudomonas aeruginosa PR2 (clinical isolate with intermediate aminoglycoside resistance); assay: MIC against Pseudomonas aeruginosa clinical isolate PR2; conditions: Pseudomonas aeruginosa resistant strain PR2
Excerpt: (§1) Pseudomonas aeruginosa is a prominent nosocomial pathogen. In addition to intrinsic antibiotic resistance to several antibiotics, Pseudomonas has acquired multiple additional mechanisms of resistance. As a result, therapeutic options for the treatment of infections caused by Pseudomonas aeruginosa are limited. We acquired clinical isolates of Pseudomonas aeruginosa (Micromyx LLC, Kalamazoo, Mich.), and used this panel to test compounds for Pseudomonicidal activity. […] For each strain and antibiotic, the mechanism(s) of resistance was inferred from the resistance profile. The presence of specific AGMEs was confirmed by colony PCR.

[4] = system: Acinetobacter baumannii (Aba, ABWT, ATCC #BAA-747); assay: MIC against Acinetobacter baumannii reference strain ABWT; conditions: for MIC: ATCCBAA747
Excerpt: (§2) For evaluation of efficacy, we assembled panels of representative gram-negative pathogens, including Pseudomonas aeruginosa (Pae, PAWT, ATCC #27853), Klebsiella pneumoniae (Kpn, KPWT, ATCC #700603), Acinetobacter baumannii (Aba, ABWT, ATCC #BAA-747) and Escherichia coli (Eco, ECWT, ATCC #25922). These reference strains are useful indicator organisms to characterize compound activity against bacteria from a pathogenic genus in the absence of multiple resistance mechanisms. Two strains (PAWT and ECWT) are reference strains cited within the Clinical and Laboratory Standards Institute (CLSI) Standards for susceptibility testing by Minimum Inhibitory Concentration (MIC) (SXPS2) and are well suited for quality control. ABWT and ECWT are widely susceptible to aminoglycoside antibiotics, whereas PAWT and KPWT harbor a single aminoglycoside-modifying enzyme (AGME) that targets 4,6-substituted-2-deoxystreptamine AGs. […]

[5] = system: Escherichia coli (Eco, ECWT, ATCC #25922); assay: MIC against Escherichia coli reference strain ECWT; conditions: for MIC: ATCC25922
Excerpt: For evaluation of efficacy, we assembled panels of representative gram-negative pathogens, including Pseudomonas aeruginosa (Pae, PAWT, ATCC #27853), Klebsiella pneumoniae (Kpn, KPWT, ATCC #700603), Acinetobacter baumannii (Aba, ABWT, ATCC #BAA-747) and Escherichia coli (Eco, ECWT, ATCC #25922). These reference strains are useful indicator organisms to characterize compound activity against bacteria from a pathogenic genus in the absence of multiple resistance mechanisms. Two strains (PAWT and ECWT) are reference strains cited within the Clinical and Laboratory Standards Institute (CLSI) Standards for susceptibility testing by Minimum Inhibitory Concentration (MIC) (SXPS2) and are well suited for quality control. ABWT and ECWT are widely susceptible to aminoglycoside antibiotics, whereas PAWT and KPWT harbor a single aminoglycoside-modifying enzyme (AGME) that targets 4,6-substituted-2-deoxystreptamine AGs.

[6] = system: Pseudomonas aeruginosa PR3 (high-level, efflux-mediated, pan-aminoglycoside resistance); assay: MIC against Pseudomonas aeruginosa clinical isolate PR3; conditions: for MIC PR3: Pseudomonas aeruginosa resistant strain PR3; for MIC: Pseudomonas aeruginosa, read-out: MIC PR3
Excerpt: as §1

[7] = system: Pseudomonas aeruginosa (Pae, PAWT, ATCC #27853); assay: MIC against Pseudomonas aeruginosa reference strain PAWT; conditions: Pseudomonas aeruginosa wild type PAWT; for MIC: ATCC27853
Excerpt: as §2

[8] = system: Pseudomonas aeruginosa PR1 (clinical isolate with intermediate aminoglycoside resistance); assay: MIC against Pseudomonas aeruginosa clinical isolate PR1; conditions: Pseudomonas aeruginosa resistant strain PR1
Excerpt: as §1

[9] = system: more than fifty resistant contemporary clinical isolates of Pseudomonas aeruginosa; assay: MIC90 against panel of resistant clinical isolates of Pseudomonas aeruginosa; conditions: Pseudomonas aeruginosa
Excerpt: To assess this, a panel of more than fifty resistant contemporary clinical isolates of Pseudomonas aeruginosa were obtained from multiple sources including JMI Laboratories (North Liberty, Iowa), Pfizer (Groton, Conn.), Micromyx (Kalamazoo, Mich.), Dr. J. Chow (Wayne State University). Strains were characterized for resistance to a wide variety of classes of antibiotics including aminoglycosides, β-lactams and fluoroquinolones. […] This reflects the difficulty in treating clinical Pseudomonas aeruginosa infections. […] Using this stringent panel, we tested a subset of compounds of the invention (Table 4).

[10] = system: fifty resistant contemporary clinical isolates of Klebsiella pneumoniae; assay: MIC90 against panel of resistant clinical isolates of Klebsiella pneumoniae; conditions: Klebsiella pneumoniae; fifty resistant contemporary clinical isolates, reference antibiotics
Excerpt: Using this stringent Klebsiella pneumoniae panel, we tested a subset of compounds of the invention.

Molecule	MIC KPWT [1]	MIC PR2 [3]	MIC ABWT [4]	MIC ECWT [5]	MIC PR3 [6]	MIC PAWT [7]	MIC PR1 [8]	MIC90 [9]	MIC90 [10]	also measured
NC[C@H]1O[C@H](O[C@H]2[C@H](O)[C@@H](O[C@H]3O[C@H](CO)[C@@H](O)[C@H](N)[C@H]3O)[C@H](N)C[C@@H]2N)[C@H](O)[C@@H](O)[C@@H]1O [kanamycin A]	32 mg/L (≈ 66 µM)	>64 mg/L	1 mg/L (≈ 2.06 µM)	4 mg/L (≈ 8.26 µM)	>64 mg/L	>64 mg/L	>64 mg/L	–	–	potency against Klebsiella pneumoniae test panel [2]: limited to no activity
NC[C@H]1O[C@H](O[C@H]2[C@H](O)[C@@H](O[C@H]3O[C@H](CO)[C@@H](O)[C@H](N)[C@H]3O)[C@H](N)C[C@@H]2N)[C@H](N)[C@@H](O)[C@@H]1O [kanamycin B]	16 mg/L (≈ 33.1 µM)	>64 mg/L	0.5 to 1 mg/L	2 mg/L (≈ 4.14 µM)	>64 mg/L	16 mg/L (≈ 33.1 µM)	64 mg/L (≈ 132 µM)	–	–	potency against Klebsiella pneumoniae test panel [2]: limited to no activity
C[C@H]1COc2c(N3CCN(C)CC3)c(F)cc3c(=O)c(C(=O)O)cn1c23 [levofloxacin]	–	–	–	–	–	–	–	≥ 64 mg/L	≥ 64 mg/L	–
C[C@@H](O)[C@H]1C(=O)N2C(C(=O)O)=C(S[C@@H]3CN[C@H](C(=O)N(C)C)C3)[C@H](C)[C@H]12 [meropenem]	–	–	–	–	–	–	–	≥ 64 mg/L	≥ 64 mg/L	–
NC[C@@H]1O[C@H](O[C@H]2[C@@H](O)[C@H](O[C@@H]3[C@@H](O)[C@H](N)C[C@H](N)[C@H]3O[C@H]3O[C@H](CN)[C@@H](O)[C@H](O)[C@H]3N)O[C@@H]2CO)[C@H](N)[C@@H](O)[C@@H]1O [neomycin]	4 to 8 mg/L	8 to 16 mg/L	0.25 to 0.5 mg/L	1 mg/L (≈ 1.63 µM)	>64 mg/L	32 mg/L (≈ 52.1 µM)	32 mg/L (≈ 52.1 µM)	–	–	–
CCN1CCN(C(=O)N[C@@H](C(=O)N[C@@H]2C(=O)N3[C@@H]2SC(C)(C)[C@@H]3C(=O)O)c2ccccc2)C(=O)C1=O [piperacillin]	–	–	–	–	–	–	–	≥ 64 mg/L	≥ 64 mg/L	–
CN[C@@H]1[C@@H](O)[C@@H](O[C@@H]2[C@@H](O)[C@H](O[C@H]3OC(CN)=CC[C@H]3N)[C@@H](N)C[C@H]2N)OC[C@]1(C)O [sisomycin]	1 to 2 mg/L	>64 mg/L	–	–	>64 mg/L	0.25 to 0.5 mg/L	4 mg/L (≈ 8.94 µM)	–	–	–
CN[C@@H]1[C@H](O)[C@H](NC)[C@H]2O[C@@]3(O)C(=O)C[C@@H](C)O[C@H]3O[C@@H]2[C@H]1O [spectinomycin]	–	–	–	–	–	–	–	–	–	MIC [1]: 64 mg/L (≈ 193 µM); MIC [3]: > 64 mg/L; MIC [4]: 16 mg/L (≈ 48.1 µM); MIC [5]: 8 to 16 mg/L (≈ 24.1 to 48.1 µM); MIC [6]: > 64 mg/L; MIC [7]: > 64 mg/L; MIC [8]: > 64 mg/L
[H]/N=C(/N)N[C@H]1[C@H](O)[C@@H](O)[C@H](O[C@@H]2O[C@@H](C)[C@](O)(C=O)[C@H]2O[C@@H]2O[C@@H](CO)[C@H](O)[C@@H](O)[C@@H]2NC)[C@@H](N/C(N)=N\[H])[C@@H]1O [streptomycin]	–	–	–	–	–	–	–	–	–	MIC [1]: 1 to 2 mg/L (≈ 1.72 to 3.44 µM); MIC [3]: 16 mg/L (≈ 27.5 µM); MIC [4]: 2 to 4 mg/L (≈ 3.44 to 6.88 µM); MIC [5]: 4 mg/L (≈ 6.88 µM); MIC [7]: 16 mg/L (≈ 27.5 µM); MIC [8]: 64 mg/L (≈ 110 µM)
NC[C@H]1O[C@H](O[C@H]2[C@H](O)[C@@H](O[C@H]3O[C@H](CO)[C@@H](O)[C@H](N)[C@H]3O)[C@H](N)C[C@@H]2N)[C@H](N)C[C@@H]1O [tobramycin]	–	–	–	–	–	–	–	≥ 64 mg/L	≥ 64 mg/L	MIC [1]: 8 mg/L (≈ 17.1 µM); MIC [3]: > 64 mg/L; MIC [4]: 0.25 mg/L (≈ 0.535 µM); MIC [5]: 1 mg/L (≈ 2.14 µM); MIC [6]: > 64 mg/L; MIC [7]: 0.25 mg/L (≈ 0.535 µM); MIC [8]: 2 mg/L (≈ 4.28 µM)
gentamycin	8 mg/L	>64 mg/L	0.25 to 0.5 mg/L	0.5 mg/L	>64 mg/L	1 mg/L	8 mg/L	–	–	–
